Consider 29 compounds from PubChem BioAssay AID179 (DTP/NCI, 2004).

Activity calls are given as the source filed them.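 The calls were made as follows: active = compounds giving half or more protection of infected cells from virus-caused growth loss, again on retest; inactive = the rest.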 Where a SMILES comes first, the peptide text is derived from it. The star is where a group is joined. Cbz = O=C(OCc1ccccc1)*; NHNH2 = NN*

The assay deals with CEM cells HIV-1 protection, formazan growth assay. The assay can be described thus: NCI AIDS Antiviral Assay. To be noted: for IC50: measured here: growth of uninfected CEM cells. The method, then:
The ability of compounds to protect human CEM cells from HIV-1 infection is measured as a screen for new compounds capable of inhibiting the HIV virus. Five concentrations of drug were tested on uninfected and infected cells and cell growth was measured using a soluble formazan assay. […] Compounds that provided at least 50% protection were retested. Compounds that provided at least 50% protection on retest were listed as moderately active. Compounds that reproducibly provided 100% protection were listed as confirmed active. […] Note that the inability to provide protection could be due to toxicity.

The term EC50 denotes the concentration giving half of the maximal effect. As usually defined, the IC50 is the concentration at which inhibition is half-maximal. With `c1ccc(SCCC(Sc2ccccc2)Sc2ccccc2)cc1`, the EC50 is greater than 200 µM and the half-maximal inhibitory concentration (IC50) came to 93.3 µM. As to `COC(=O)C(C#N)C1NC(=O)c2ccccc21` (centres undefined), the EC50 was greater than 81.3 µM and the IC50 was greater than 81.3 µM. On to `CCOC(=O)CSCn1ncc2ccc([N+](=O)[O-])cc21`, for which the outcome was inactive.

On to `O=C(CCc1ccc(O)c(O)c1)NCCc1ccc(O)c(O)c1`, for which the EC50 was greater than 200 µM and the IC50 was 9.55 µM. On to `COc1cc2c(cc1OC)C(C1C(=O)CC(C)(C)CC1=O)NCC2` (centres undefined), for which the outcome was inactive. For the compound `C=C1[C@H]2C[C@H]3[C@@H]4N5C[C@]6(C)CCCC47C6[C@H]5CC3([C@@H]1O)[C@H]7[C@H]2O`, the outcome was inactive. For the compound `O=C(CC1Sc2ccccc2NC1=O)Nc1ccc([N+](=O)[O-])cc1[N+](=O)[O-]` (centres undefined), the EC50 was greater than 67.6 µM and the 50% inhibitory concentration (IC50) was greater than 67.6 µM. Take `CCOC(=O)c1c(NC(=O)c2cccs2)sc2c1CCC2`: the EC50 was 195 µM and the IC50 is greater than 200 µM. For the compound `NC(N)=NCCN1CCCCCc2ccccc21`, the EC50 was greater than 200 µM and the IC50 stood at 20.9 µM. Taken in the same sequence, the figures for `CC1CC(Nc2ccc(NC3=CC(=O)OC(C)C3)cc2)=CC(=O)O1` (centres undefined) were greater than 200 µM and greater than 200 µM. On to `CCOP(=O)(OCC)/C(C#N)=C/c1ccccc1Cl`, for which the result was inactive.

In the case of `Cc1[nH]n(C(=O)Cc2ccccc2)c(=O)c1/C=C1\C(=O)C=Cc2ccccc21`, the EC50 is greater than 51.3 µM and the IC50 was greater than 51.3 µM. Take `COC(=O)c1c2c(cc3c1CC1(Cc4ccccc4C1=O)C3)CCC2` (centres undefined): the EC50 was greater than 200 µM and the IC50 was 13.5 µM. For `O=C1Nc2cc3c(cc2C(=O)N2C/C(=N/O)CC12)OCO3` (centres undefined), in that order: greater than 324 µM and 191 µM. For `CC(C)NC(=O)OCc1c(COC(=O)NC(C)C)n(C)c2c1ccc1cc(Cl)c(Cl)cc12`, the EC50 was greater than 200 µM and the IC50 worked out at 2.95 µM. For `CC(C)CCC[C@@H](C)C1CCC2[C@@H]3CCC4C[C@@H](NS(C)(=O)=O)CC[C@]4(C)C3CC[C@@]21C` (some centres undefined), in that order: greater than 200 µM and greater than 200 µM. For the compound `COC(=O)Cc1cc(=O)oc2c1C(=O)CCC2`, the result was inactive.

`CCC12C=CCN3CC[C@@]4(c5ccc(OC)cc5N(C)[C@H]4[C@@](O)(C(=O)OC)[C@@H]1OC(C)=O)C32` (some centres undefined): the result was inactive. Consider `CC(C)C(NC(=O)C1CCCN1C(=O)OCc1ccccc1)C(=O)NN` (stereo not drawn) (Cbz-Pro-Val-NHNH2; configuration not given here), for which the EC50 was greater than 692 µM and the IC50 stood at 407 µM. Taken in the same sequence, the figures for `c1ccc(N2N=NC3C4CCC(C4)C32)cc1` (centres undefined) were greater than 200 µM and greater than 200 µM. In the case of `Brc1ccc(N=c2nc3ccccn3n3nc(-c4ccccc4)cc23)cc1`, the EC50 is greater than 24 µM and the IC50 was greater than 24 µM. For `C/C=C/CSc1cc(NC(=S)c2ccsc2C)ccc1Cl`, the EC50 is 0.263 µM and the IC50 turned out to be 12.3 µM. Take `COc1ccc(C(C#N)NC23CC4CC(CC(C4)C2)C3)cc1OC` (centres undefined): the outcome was inactive. Take `O=C1[C@@H]2C3SC(c4ccccc43)[C@@H]2C(=O)N1c1ccccc1`: the result was inactive. `CC(=O)Nc1ccc(/C=C2/SC(=S)N(/C=C(\c3ccccc3)S(=O)Cc3ccccc3)C2=O)cc1` (centres undefined): the EC50 was greater than 200 µM and the IC50 was 89.1 µM.

With `CCOC(=O)Cc1cc(=O)[nH]n(-c2ccccc2)c1=O`, the result was inactive. For the compound `COc1cc(C2=NN(C)C(c3ccc([N+](=O)[O-])o3)C2)cc(OC)c1OC` (centres undefined), the EC50 is greater than 83.2 µM and the IC50 came out at 32.4 µM. As for `C1=Nc2ccc(cc2)N=Cc2ccccc2OCc2cccc(n2)COc2ccccc21`, the EC50 is greater than 200 µM and the IC50 was greater than 200 µM. In the case of `N#CC1=C(N)N(c2ccccc2)C(c2ccccc2)C1(C#N)C#N` (centres undefined), the EC50 is greater than 200 µM and the IC50 worked out at 14.1 µM.
